Experimental findings from ChEMBL document CHEMBL4814072, “Chemoenzymatic synthesis of 2,6-disubstituted tetrahydropyrans with high σ1 receptor affinity, antitumor and analgesic activity” (Eur J Med Chem, 2021) are described below.

The target of data set [1] is Sigma non-opioid intracellular receptor 1 (Cavia porcellus, UniProt Q60492).
For data set [2], the target named is 5-hydroxytryptamine receptor 2B (Homo sapiens) (UniProt P41595). Put plainly: Binding affinity to human 5HT2B receptor.
In data set [3] the target is Sodium-dependent dopamine transporter (Homo sapiens) (UniProt Q01959). Put plainly: Inhibition of dopamine transporter (unknown origin).
For a further data set, the system named is DU-145. Put plainly: Antiproliferative activity against androgen-negative human DU145 cells assessed as inhibition of cell growth at 10 uM measured after 72 hrs by SRB assay. Type of data set: functional, cell-based. (The SRB assay estimates cell density from bound dye.)
The next data set has as its target Cytochrome P450 3A4 (Homo sapiens, UniProt P08684). The data set can be described thus: Inhibition of CYP3A4 (unknown origin) at 1 uM. Type of data set: ADME.
The nature of data set [4]: Selectivity ratio of Ki for sigma2 receptor in rat liver membrane to Ki for sigma1 receptor in guinea pig brain membrane. The format is cell membranes.
For data set [5], the target named is Sodium-dependent noradrenaline transporter (Homo sapiens) (UniProt P23975). The data set can be described thus: Inhibition of noradrenaline transporter (unknown origin).
The target in data set [6] is T1, Sigma intracellular receptor 2 (Rattus norvegicus, UniProt Q5U3Y7).
T1 sequence (Q5U3Y7 whole entry): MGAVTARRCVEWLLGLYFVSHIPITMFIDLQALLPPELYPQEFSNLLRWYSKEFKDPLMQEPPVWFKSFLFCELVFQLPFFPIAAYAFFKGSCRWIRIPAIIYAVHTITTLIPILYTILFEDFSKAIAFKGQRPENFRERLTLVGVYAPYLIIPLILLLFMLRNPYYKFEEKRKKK
The data set can be described thus: Displacement of [3H]-di-o-tolylguanidine from sigma2 receptor in rat liver membrane by solid scintillation counting method. Type of data set: cell membranes. (Loss of bound radioactivity is the signal in a displacement assay; it reports binding, not function.)

The target in data set [7] is T2, 5-hydroxytryptamine receptor 1A (Homo sapiens) (UniProt P08908).
T2 sequence (whole entry): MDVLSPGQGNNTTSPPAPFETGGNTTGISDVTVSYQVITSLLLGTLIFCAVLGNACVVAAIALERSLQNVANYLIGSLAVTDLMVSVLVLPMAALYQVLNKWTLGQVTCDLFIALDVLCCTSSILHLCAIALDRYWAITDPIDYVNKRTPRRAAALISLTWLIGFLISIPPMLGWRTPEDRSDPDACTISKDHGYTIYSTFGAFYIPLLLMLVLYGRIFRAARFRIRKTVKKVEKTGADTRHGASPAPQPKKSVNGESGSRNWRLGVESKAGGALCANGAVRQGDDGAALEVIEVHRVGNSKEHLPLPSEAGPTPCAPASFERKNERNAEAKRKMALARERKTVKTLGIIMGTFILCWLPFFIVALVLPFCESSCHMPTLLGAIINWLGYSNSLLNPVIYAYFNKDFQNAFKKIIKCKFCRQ
The data set can be described thus: Binding affinity to human 5HT1A receptor.

Data set [8] has as its target Sodium-dependent serotonin transporter (Homo sapiens) (UniProt P31645). Put plainly: Inhibition of serotonin transporter (unknown origin).
The target of another data set is Cytochrome P450 2C19 (Homo sapiens, UniProt P33261). The data set can be described thus: Inhibition of CYP2C19 (unknown origin) at 1 uM. Type of data set: ADME.
Data set [9] concerns the target Kappa-type opioid receptor (Homo sapiens) (UniProt P41145). Put plainly: Binding affinity to human kappa opioid receptor.
Another data set deals with T3, Cytochrome P450 1A2 (Homo sapiens, UniProt P05177).
T3 sequence (P05177 whole entry): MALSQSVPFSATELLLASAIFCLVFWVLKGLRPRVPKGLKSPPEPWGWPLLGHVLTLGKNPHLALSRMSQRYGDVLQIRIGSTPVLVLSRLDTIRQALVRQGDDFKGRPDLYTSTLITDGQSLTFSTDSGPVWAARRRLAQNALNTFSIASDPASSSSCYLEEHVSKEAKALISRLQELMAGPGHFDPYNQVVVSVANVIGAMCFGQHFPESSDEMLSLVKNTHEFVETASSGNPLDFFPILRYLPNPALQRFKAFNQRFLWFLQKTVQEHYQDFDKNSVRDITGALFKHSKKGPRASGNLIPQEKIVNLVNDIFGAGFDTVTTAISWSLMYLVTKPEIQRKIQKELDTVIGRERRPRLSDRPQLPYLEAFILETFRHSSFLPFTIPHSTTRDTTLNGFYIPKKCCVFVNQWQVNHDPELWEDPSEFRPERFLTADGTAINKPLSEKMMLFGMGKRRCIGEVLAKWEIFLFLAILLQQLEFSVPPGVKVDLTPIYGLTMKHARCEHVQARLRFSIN
Put plainly: Inhibition of CYP1A2 (unknown origin) at 1 uM. Type of data set: ADME.

Data set [10] addresses Delta-type opioid receptor (Homo sapiens) (UniProt P41143). Put plainly: Binding affinity to human delta opioid receptor.
For data set [11], the target named is Adrenergic receptor alpha-1 (Homo sapiens) (UniProt P35348+P25100+P35368). Put plainly: Binding affinity to human alpha1 adrenergic receptor. Type of data set: protein assay.
The test system of another data set is Mus musculus. The data set can be described thus: Antiallodynic activity in CD-1 mouse assessed as analgesia at 40 mg/kg, sc administered 30 mins prior to capsaicin stimulation and measured after 15 mins by von Frey test (reference value: 97.3 %). Type of data set: functional. The conditions noted are these: time 45 min, 0.75 h.
For data set [12], the target named is T4, Alpha-2A adrenergic receptor (Homo sapiens) (UniProt P08913).
T4 sequence (whole entry): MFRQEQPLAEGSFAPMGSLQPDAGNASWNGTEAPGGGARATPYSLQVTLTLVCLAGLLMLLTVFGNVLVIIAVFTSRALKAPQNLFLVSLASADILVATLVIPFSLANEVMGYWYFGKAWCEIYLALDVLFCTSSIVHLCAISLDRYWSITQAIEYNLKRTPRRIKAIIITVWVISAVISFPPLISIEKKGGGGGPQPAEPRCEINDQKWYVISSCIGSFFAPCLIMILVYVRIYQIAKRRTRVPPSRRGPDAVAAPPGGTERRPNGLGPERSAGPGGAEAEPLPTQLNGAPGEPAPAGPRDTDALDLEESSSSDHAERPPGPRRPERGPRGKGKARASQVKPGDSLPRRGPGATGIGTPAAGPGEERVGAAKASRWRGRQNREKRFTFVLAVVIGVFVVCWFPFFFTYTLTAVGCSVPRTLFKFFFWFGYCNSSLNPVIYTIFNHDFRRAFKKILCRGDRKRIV
Put plainly: Binding affinity to human alpha2A adrenergic receptor.

The target in data set [13] is Mu-type opioid receptor (Homo sapiens) (UniProt P35372). Put plainly: Binding affinity to human mu opioid receptor.
The target in another data set is Cytochrome P450 2C9 (Homo sapiens, UniProt P11712). Put plainly: Inhibition of CYP2C9 (unknown origin) at 1 uM. The format is ADME.
Data set [14] has as its target Glutamate [NMDA] receptor (Homo sapiens) (UniProt Q05586+Q12879+Q13224+O15399+O60391+Q14957+Q8TCU5). Put plainly: Displacement of [3H]-(+)-MK801 from PCP binding site of NMDA receptor (unknown origin). Type of data set: protein-complex assay. The conditions noted are these: dose 1.0 µM.
In data set [15] the target is Sigma intracellular receptor 2 (Rattus norvegicus) (UniProt Q5U3Y7). Put plainly: Displacement of [3H]-di-o-tolylguanidine from sigma2 receptor in rat liver membrane at 1 uM by solid scintillation counting method. Type of data set: cell membranes.
Data set [16] addresses Sigma non-opioid intracellular receptor 1 (Cavia porcellus) (UniProt Q60492). Put plainly: Displacement of [3H]-(+)-pentazocine from sigma1 receptor in guinea pig brain membrane at 1 uM measured after 120 mins by solid scintillation counting method. Type of data set: cell membranes.

Calls of active or inactive are those of the source. The calls are words filed in the database; no cut-off is given here.

Sequence of Delta-type opioid receptor (Homo sapiens) (P41143 whole entry): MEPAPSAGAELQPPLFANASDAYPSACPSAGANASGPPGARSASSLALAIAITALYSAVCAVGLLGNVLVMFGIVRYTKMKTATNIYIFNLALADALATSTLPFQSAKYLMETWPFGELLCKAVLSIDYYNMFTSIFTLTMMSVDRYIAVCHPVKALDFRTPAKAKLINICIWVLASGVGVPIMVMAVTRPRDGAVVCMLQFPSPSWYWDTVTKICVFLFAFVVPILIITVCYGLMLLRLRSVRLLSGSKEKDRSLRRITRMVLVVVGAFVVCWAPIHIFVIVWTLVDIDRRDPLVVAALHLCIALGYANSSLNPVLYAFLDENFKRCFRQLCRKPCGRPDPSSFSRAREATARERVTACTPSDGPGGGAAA
Sequence of Cytochrome P450 2C9 (P11712 whole entry): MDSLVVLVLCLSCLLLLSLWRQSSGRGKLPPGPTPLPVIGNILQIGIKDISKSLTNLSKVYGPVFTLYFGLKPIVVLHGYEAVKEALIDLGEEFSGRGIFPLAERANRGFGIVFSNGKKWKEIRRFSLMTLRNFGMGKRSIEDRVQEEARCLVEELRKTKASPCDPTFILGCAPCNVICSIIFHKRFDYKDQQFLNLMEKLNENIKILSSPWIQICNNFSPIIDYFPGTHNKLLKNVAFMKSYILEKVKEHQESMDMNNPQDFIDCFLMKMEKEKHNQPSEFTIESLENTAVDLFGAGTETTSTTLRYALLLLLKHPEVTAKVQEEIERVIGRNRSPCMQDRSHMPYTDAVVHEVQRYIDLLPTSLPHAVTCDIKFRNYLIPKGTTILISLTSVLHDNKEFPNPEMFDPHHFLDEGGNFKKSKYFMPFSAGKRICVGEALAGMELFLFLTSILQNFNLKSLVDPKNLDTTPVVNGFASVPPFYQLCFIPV
Sequence of Mu-type opioid receptor (Homo sapiens) (P35372 whole entry): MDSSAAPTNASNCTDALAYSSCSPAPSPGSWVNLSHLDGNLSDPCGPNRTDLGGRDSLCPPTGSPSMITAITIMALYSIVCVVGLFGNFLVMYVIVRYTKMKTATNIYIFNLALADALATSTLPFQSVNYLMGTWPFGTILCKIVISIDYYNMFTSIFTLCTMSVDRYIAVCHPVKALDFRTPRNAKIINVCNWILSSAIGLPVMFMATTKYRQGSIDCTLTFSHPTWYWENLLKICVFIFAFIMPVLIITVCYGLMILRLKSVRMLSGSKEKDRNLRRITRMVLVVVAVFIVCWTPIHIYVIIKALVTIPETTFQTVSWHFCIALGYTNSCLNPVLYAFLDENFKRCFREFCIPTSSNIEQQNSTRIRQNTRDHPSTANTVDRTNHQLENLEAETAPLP
Sequence of Kappa-type opioid receptor (Homo sapiens) (P41145 whole entry): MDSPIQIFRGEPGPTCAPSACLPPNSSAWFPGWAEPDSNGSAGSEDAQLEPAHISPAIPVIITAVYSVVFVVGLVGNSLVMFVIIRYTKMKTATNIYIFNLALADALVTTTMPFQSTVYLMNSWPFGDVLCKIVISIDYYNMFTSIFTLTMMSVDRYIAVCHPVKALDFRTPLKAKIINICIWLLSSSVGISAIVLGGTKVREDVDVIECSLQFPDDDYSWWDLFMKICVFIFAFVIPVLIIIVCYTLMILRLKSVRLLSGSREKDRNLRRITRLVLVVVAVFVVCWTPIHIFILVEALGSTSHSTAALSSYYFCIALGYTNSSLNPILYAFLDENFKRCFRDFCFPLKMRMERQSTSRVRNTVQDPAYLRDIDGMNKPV
Sequence of Sodium-dependent dopamine transporter (Homo sapiens) (Q01959 whole entry): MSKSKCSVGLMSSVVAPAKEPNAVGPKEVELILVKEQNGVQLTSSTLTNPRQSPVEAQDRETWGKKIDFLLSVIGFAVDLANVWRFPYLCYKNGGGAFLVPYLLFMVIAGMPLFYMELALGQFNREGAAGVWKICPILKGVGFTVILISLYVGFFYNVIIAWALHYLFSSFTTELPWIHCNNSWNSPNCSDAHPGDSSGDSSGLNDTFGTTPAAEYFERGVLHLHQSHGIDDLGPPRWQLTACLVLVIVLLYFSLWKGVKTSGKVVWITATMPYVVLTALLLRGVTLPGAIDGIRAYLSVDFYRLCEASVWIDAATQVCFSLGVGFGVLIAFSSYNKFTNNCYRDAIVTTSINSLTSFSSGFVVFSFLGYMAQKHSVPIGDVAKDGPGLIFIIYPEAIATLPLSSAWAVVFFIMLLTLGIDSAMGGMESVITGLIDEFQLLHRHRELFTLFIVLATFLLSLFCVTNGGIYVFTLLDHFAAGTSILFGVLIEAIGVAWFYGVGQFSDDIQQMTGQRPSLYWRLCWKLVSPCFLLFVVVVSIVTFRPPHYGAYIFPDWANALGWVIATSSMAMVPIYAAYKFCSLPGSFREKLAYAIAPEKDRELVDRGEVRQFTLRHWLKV
Sequence of Sodium-dependent noradrenaline transporter (Homo sapiens) (P23975 whole entry): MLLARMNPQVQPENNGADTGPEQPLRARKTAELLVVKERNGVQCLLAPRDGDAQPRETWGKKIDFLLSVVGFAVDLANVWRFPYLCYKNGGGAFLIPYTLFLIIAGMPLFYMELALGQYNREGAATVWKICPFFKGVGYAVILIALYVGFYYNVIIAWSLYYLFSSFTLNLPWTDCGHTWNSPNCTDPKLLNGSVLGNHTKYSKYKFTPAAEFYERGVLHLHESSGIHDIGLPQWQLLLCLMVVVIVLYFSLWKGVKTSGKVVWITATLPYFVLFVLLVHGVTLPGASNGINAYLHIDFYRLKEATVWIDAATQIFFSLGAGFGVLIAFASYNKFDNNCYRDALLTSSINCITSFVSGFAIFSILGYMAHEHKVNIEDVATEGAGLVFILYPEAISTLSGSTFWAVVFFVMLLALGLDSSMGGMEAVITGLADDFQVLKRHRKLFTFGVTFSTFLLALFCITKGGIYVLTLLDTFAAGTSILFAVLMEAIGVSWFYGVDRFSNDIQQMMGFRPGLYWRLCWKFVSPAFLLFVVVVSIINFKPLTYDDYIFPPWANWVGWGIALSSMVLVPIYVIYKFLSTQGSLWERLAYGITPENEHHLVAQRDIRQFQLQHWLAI
Sequence of Cytochrome P450 2C19 (P33261 whole entry): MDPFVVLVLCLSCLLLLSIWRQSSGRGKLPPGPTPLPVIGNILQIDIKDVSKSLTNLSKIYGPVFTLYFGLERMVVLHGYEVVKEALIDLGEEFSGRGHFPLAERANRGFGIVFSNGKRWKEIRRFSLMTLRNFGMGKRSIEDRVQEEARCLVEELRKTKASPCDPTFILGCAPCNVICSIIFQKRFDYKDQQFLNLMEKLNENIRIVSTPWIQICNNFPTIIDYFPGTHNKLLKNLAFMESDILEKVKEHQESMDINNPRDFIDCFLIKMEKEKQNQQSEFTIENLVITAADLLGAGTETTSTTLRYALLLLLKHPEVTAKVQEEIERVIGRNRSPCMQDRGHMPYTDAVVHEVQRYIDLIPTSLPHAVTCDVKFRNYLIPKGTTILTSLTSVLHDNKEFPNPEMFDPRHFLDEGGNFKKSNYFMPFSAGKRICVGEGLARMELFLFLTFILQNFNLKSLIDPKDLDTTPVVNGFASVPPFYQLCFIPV
Sequence of Sodium-dependent serotonin transporter (Homo sapiens) (P31645 whole entry, looked up): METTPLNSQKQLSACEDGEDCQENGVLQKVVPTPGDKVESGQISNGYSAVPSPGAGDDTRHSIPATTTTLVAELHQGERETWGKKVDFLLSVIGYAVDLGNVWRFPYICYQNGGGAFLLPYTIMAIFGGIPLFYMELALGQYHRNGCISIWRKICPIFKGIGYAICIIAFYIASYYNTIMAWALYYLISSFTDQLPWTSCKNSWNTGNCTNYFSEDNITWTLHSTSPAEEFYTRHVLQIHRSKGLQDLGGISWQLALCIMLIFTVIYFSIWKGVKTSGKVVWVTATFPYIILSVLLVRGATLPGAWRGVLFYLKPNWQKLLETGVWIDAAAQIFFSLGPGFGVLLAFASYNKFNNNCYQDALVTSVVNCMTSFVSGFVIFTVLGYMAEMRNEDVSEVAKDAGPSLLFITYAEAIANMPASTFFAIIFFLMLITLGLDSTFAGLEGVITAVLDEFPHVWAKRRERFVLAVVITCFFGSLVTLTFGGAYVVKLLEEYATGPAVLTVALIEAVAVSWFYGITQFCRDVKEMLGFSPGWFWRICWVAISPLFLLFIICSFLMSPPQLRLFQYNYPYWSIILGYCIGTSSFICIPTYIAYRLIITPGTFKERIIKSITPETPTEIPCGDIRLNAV
Sequence of 5-hydroxytryptamine receptor 2B (Homo sapiens) (P41595 whole entry): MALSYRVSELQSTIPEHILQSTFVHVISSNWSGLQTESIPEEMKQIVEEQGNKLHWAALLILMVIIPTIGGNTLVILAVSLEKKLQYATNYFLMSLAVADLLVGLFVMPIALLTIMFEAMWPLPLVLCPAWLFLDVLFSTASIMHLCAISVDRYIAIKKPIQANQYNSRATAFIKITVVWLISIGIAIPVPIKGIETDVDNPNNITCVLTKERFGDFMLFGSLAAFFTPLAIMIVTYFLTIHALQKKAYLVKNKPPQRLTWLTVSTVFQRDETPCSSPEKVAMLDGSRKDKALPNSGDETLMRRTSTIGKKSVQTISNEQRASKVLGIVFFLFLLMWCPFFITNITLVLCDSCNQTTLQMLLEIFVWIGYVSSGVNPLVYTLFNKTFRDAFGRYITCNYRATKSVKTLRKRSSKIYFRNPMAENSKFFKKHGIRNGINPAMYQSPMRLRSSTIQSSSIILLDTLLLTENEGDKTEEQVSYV
Sequence of Sigma non-opioid intracellular receptor 1 (Q60492 whole entry): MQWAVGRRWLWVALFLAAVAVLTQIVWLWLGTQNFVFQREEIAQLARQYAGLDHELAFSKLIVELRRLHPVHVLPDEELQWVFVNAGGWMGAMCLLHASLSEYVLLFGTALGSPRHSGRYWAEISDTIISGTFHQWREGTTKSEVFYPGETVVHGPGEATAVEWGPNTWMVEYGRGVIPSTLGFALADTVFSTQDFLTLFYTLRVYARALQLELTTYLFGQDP
Sequence of Sigma non-opioid intracellular receptor 1 (Cavia porcellus) (Q60492 whole entry): as above

A word on the Ki: it is the equilibrium dissociation constant of an inhibitor or competing ligand from its target. High values mean a looser hold on the target, low ones a stronger hold on the target. As a reminder, the inhibition is the change of the read-out against control, counted positive when it falls. In the case of `c1ccc(CNCC[C@@H]2CCC[C@H](c3ccccc3)O2)cc1`, the inhibitory constant (Ki) stood at 1.6 nM in [1] and 378 nM in data set [6]. The outcome in data set [2], in [7], in data set [9], in [10], in [11] and in data set [12] was inactive. The outcome in [13] was inactive. In addition, the inhibition entry in [3], in [5] and in data set [8] was “inactive” each time. Besides, the result in the data set on DU-145 was Active. In addition, the “inhibition (INH)” value on Cytochrome P450 3A4, at Cytochrome P450 2C19, on Cytochrome P450 1A2 and against Cytochrome P450 2C9 was “Not Active” each time. The Ratio Ki in data set [4] was found to be 236. The Activity in the data set on Mus musculus came out at 21%.
Regarding `c1ccc([C@@H]2CCC[C@H](CCN3CCN(c4ccccc4)CC3)O2)cc1`, the results for the inhibition constant Ki in data set [1] and in data set [6] were 57 nM and 161 nM, respectively.
As for `NCC[C@@H]1CCC[C@H](c2ccccc2)O1`, the inhibition is 14% in data set [14], 5% in data set [15] and 9% in data set [16].
In the case of `c1ccc([C@H]2CCC[C@@H](CCN3CCCC3)O2)cc1`, the inhibitory constant (Ki) came to 60 nM in [1] and 115 nM in [6].
In the case of `Cc1cc(OCCN2CCOCC2)nn1-c1ccc2ccccc2c1`, in the data set with Mus musculus, the Activity stood at 97%.
Consider `c1ccc(CNCC[C@H]2CCC[C@@H](c3ccccc3)O2)cc1`, for which the Ki in [1] is 5.4 nM; in [6], 426 nM. For the same molecule, the result in [2], in data set [7], in data set [9], in data set [10], in data set [11] and in data set [12] was inactive. For the same molecule, the result in data set [13] was inactive. Moreover, the inhibition result in data set [3], in data set [5] and in data set [8] was “inactive” each time. Also, the outcome in the data set with DU-145 was Active. Moreover, the “inhibition (INH)” value against Cytochrome P450 3A4, against Cytochrome P450 2C19, on Cytochrome P450 1A2 and against Cytochrome P450 2C9 was “Not Active” throughout. For the same molecule, the Activity in the data set on Mus musculus was 55%.
On to `c1ccc([C@@H]2CCC[C@H](CCN3CCCC3)O2)cc1`, for which the inhibition constant (Ki) is 31 nM in data set [1] and 170 nM in data set [6].
Consider `c1ccc(CCCCNCC[C@H]2CCC[C@@H](c3ccccc3)O2)cc1`, for which the figures for the Ki in data set [1] and in data set [6] were 29 nM and 377 nM, respectively. For the same molecule, in data set [14], the inhibition stood at 42%.
The corresponding values for `CN(C)CC[C@@H]1CCC[C@H](c2ccccc2)O1` are 465 nM, 2300 nM and 37%.
For `CN(C)CC[C@H]1CCC[C@@H](c2ccccc2)O1` the same measures were 217 nM, 4000 nM and 31%.
In the case of `c1ccc([C@H]2CCC[C@@H](CCNCC3CCCCC3)O2)cc1`, the inhibition constant Ki worked out at 0.95 nM in data set [1] and 57 nM in data set [6]. In addition, the outcome in data set [2], in [7], in data set [9], in [10], in [11] and in data set [12] was inactive. Further, the result in data set [13] was inactive. Further, the inhibition in data set [14] came out at 33%. In addition, the inhibition entry in [3], in data set [5] and in data set [8] was “inactive” each time. Besides, in the data set on DU-145, the result was Active. The “inhibition (INH)” value against Cytochrome P450 3A4, on Cytochrome P450 2C19, at Cytochrome P450 1A2 and on Cytochrome P450 2C9 was “Not Active” each time. The Activity with Mus musculus worked out at 67%.
For the molecule `c1ccc(CCCCNCC[C@@H]2CCC[C@H](c3ccccc3)O2)cc1`, the Ki was found to be 15 nM in data set [1] and 234 nM in data set [6]. The same molecule returned an inhibition in data set [14] of 43%.
For `c1ccc([C@H]2CCC[C@@H](CCN3CCN(c4ccccc4)CC3)O2)cc1` the same measures were 21 nM, 131 nM and 7%.
With `c1ccc([C@@H]2CCC[C@H](CCNCC3CCCCC3)O2)cc1`, the inhibition constant Ki in [1] turned out to be 2.4 nM; in data set [6] it was 36 nM. The outcome in data set [2], in data set [7], in data set [9], in data set [10], in data set [11] and in data set [12] was inactive. Moreover, the result in data set [13] was inactive. For the same molecule, the inhibition in [14] worked out at 7%. Moreover, the inhibition result in data set [3], in data set [5] and in [8] was “inactive” in each case. Moreover, in the data set on DU-145, the outcome was Active. Further, the “inhibition (INH)” value against Cytochrome P450 3A4, at Cytochrome P450 2C19, against Cytochrome P450 1A2 and at Cytochrome P450 2C9 was “Not Active” in each case. The Activity with Mus musculus came to 53%.
Turning to `NCC[C@H]1CCC[C@@H](c2ccccc2)O1`, the inhibition is 43% in data set [14], 10% in [15] and 4% in data set [16].
